Assay results: patent US20090062251A1, “Novel Compounds 002” (ASTRAZENECA AB, priority 2007, published 2009)

How the values were obtained:
[1] = biological target: T1, Human CB1 receptor (hCB1) (Homo sapiens, UniProt P21554); experiment: hCB1 receptor binding (3H-CP55,940 displacement); conditions: hCB1 membranes, Ki=IC50/(1+[rad]/Kd)
T1 construct: purchased Receptor Biology
Experimental: hCB1 and hCB2 Receptor Binding
Human CB1 receptor from Receptor Biology (hCB1) or human CB2 receptor from BioSignal (hCB2) membranes are thawed at 37° C., passed 3 times through a 25-gauge blunt-end needle, diluted in the cannabinoid binding buffer (50 mM Tris, 2.5 mM EDTA, 5 mM MgCl2, and 0.5 mg/mL BSA fatty acid free, pH 7.4) and aliquots containing the appropriate amount of protein are distributed in 96-well plates. […] The total and non-specific binding are determined in the absence and presence of 0.2 μM of HU210 respectively. The plates are vortexed and incubated for 60 minutes at room temperature, filtered through Unifilters GF/B (presoaked in 0.1% polyethyleneimine) with the Tomtec or Packard harvester using 3 mL of wash buffer (50 mM Tris, 5 mM MgCl2, 0.5 mg BSA pH 7.0). The filters are dried for 1 hour at 55° C. The radioactivity (cpm) is counted in a TopCount (Packard) after adding 65 μl/well of MS-20 scintillation liquid.
Based on the above assays, the dissociation constant (Ki) for a particular compound of the invention towards a particular receptor is determined using the following equation:
[rad] is a standard or reference radioactive ligand concentration at that moment; and
Kd is the dissociation constant of the radioactive ligand towards the particular receptor.

[2] = biological target: T1, Human CB1 receptor (hCB1); experiment: hCB1 GTPγS binding; format: biochemical; conditions: for EC50: hCB1 membranes, GTPγ35S, 10-point dose-response; for Emax: maximal stimulated binding determined with 10 μM Win 55,212-2
Method in brief: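 Human CB1 membranes in 50 mM Hepes, 100 mM NaCl, 1 mM EDTA, 5 mM MgCl2, 0.1% BSA, pH 7.4 were preincubated 5 min with GDP (30 μM final). Basal and maximal binding were defined without or with 10 μM Win 55,212-2; incubation 60 min RT; filter-bound radioactivity counted. Antagonist reversal used fixed antagonist with agonist curve, or fixed agonist with antagonist curve.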

T1 sequence (P21554 whole entry): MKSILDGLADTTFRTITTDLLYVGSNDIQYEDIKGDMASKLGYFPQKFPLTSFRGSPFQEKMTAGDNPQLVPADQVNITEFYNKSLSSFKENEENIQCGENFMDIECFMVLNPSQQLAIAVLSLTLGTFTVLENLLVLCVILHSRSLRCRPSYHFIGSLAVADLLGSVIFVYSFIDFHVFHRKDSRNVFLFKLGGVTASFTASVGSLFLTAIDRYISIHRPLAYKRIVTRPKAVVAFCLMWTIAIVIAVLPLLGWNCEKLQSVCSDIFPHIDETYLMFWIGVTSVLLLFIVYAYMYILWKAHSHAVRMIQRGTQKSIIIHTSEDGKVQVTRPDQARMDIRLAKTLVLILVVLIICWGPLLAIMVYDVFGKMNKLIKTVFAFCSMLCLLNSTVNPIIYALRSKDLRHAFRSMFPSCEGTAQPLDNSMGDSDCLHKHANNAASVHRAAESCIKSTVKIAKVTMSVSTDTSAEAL

**Q.** What does the source list for `CCN(CC(=O)NCC(F)F)C(=O)c1ccc2c(c1)c1c(n2C)CCC(C2CCOCC2)C1` (stereo not drawn) [N-(2,2-difluoroethylcarbamoylmethyl)-N-ethyl-9-methyl-6-(oxan-4-yl)-5,6,7,8-tetrahydrocarbazole-3-carboxamide]?
**A.** Ki [1]: 17.1 nM; EC50 [2]: 39.9 nM; Emax [2]: 116%

**Q.** `Cn1c2c(c3cc(C(=O)N4CCC(C(=O)NC5CC5)CC4)ccc31)CC(C1CCOCC1)CC2` (stereo not drawn) [N-cyclopropyl-1-[9-methyl-6-(oxan-4-yl)5,6,7,8-tetrahydrocarbazole-3-carbonyl]piperidine-4-carboxamide] was tested. Which Ki [1] did it give?
**A.** 118 nM

**Q.** And the EC50 [2]?
**A.** 214 nM

**Q.** And the Emax [2]?
**A.** 102%

**Q.** With `Cn1c2c(c3cc(C(=O)N4CC[C@H](C(=O)NCC5CC5)C4)ccc31)CC(C1CCOCC1)CC2` (stereo partly drawn) [(3S)—N-(cyclopropylmethyl)-1-[9-methyl-6-(oxan-4-yl)5,6,7,8-tetrahydrocarbazole-3-carbonyl]pyrrolidine-3-carboxamide] as the compound, how does the Ki [1] read?
**A.** 109 nM

**Q.** And the EC50 [2]?
**A.** 251 nM

**Q.** And the Emax [2]?
**A.** 117%

**Q.** For `Cn1c2c(c3cc(C(=O)N4CCC(C(=O)NCCF)C4)ccc31)CC(C1CCOCC1)CC2` (stereo not drawn) [N-(2-fluoroethyl)-1-[9-methyl-6-(oxan-4-yl)5,6,7,8-tetrahydrocarbazole-3-carbonyl]pyrrolidine-3-carboxamide], which Ki [1] is on record?
**A.** 126 nM

**Q.** What about the EC50 [2] of the same compound?
**A.** 263 nM

**Q.** And the Emax [2]?
**A.** 121%

**Q.** What does the source list for `CCN(CCCCO)C(=O)c1ccc2c(c1)c1c(n2C)CCC(C2CCOCC2)C1` (stereo not drawn) [N-ethyl-N-(4-hydroxybutyl)-9-methyl-6-(oxan-4-yl)-5,6,7,8-tetrahydrocarbazole-3-carboxamide]?
**A.** Ki [1]: 72.3 nM; EC50 [2]: 275 nM; Emax [2]: 122%

**Q.** Which results are given for `CCn1c2c(c3cc(C(=O)N(C)CCCC(=O)NCC(F)(F)F)ccc31)CC(C1CCOCC1)CC2` (stereo not drawn) [9-ethyl-N-methyl-6-(oxan-4-yl)-N-[3-(2,2,2-trifluoroethylcarbamoyl)propyl]-5,6,7,8-tetrahydrocarbazole-3-carboxamide]?
**A.** Ki [1]: 110 nM; EC50 [2]: 228 nM; Emax [2]: 98%

**Q.** What does the source list for `CCN(CC(=O)NC1COC1)C(=O)c1ccc2c(c1)c1c(n2C)CCC(C2CCOCC2)C1` (stereo not drawn) [N-ethyl-9-methyl-6-(oxan-4-yl)-N-(oxetan-3-ylcarbamoylmethyl)-5,6,7,8-tetrahydrocarbazole-3-carboxamide]?
**A.** Ki [1]: 63 nM; EC50 [2]: 128 nM; Emax [2]: 117%

**Q.** Which results are given for `CCn1c2c(c3cc(C(=O)N4CCC(C)CC4)ccc31)CC(C1CCCCC1)CC2` (stereo not drawn) [(6-cyclohexyl-9-ethyl-5,6,7,8-tetrahydrocarbazol-3-yl)-(4-methyl-1-piperidyl)methanone]?
**A.** Ki [1]: 82.3 nM; EC50 [2]: 234 nM; Emax [2]: 90%

**Q.** Which Ki [1] does the source give for `CCNC(=O)CN(CC)C(=O)c1ccc2c(c1)c1c(n2CCF)CCC(C2CCOCC2)C1` (stereo not drawn) [N-ethyl-N-(ethylcarbamoylmethyl)-9-(2-fluoroethyl)-6-(oxan-4-yl)-5,6,7,8-tetrahydrocarbazole-3-carboxamide] here?
**A.** 202 nM

**Q.** And the EC50 [2]?
**A.** 438 nM

**Q.** And the Emax [2]?
**A.** 109%

**Q.** With `Cn1c2c(c3cc(C(=O)N4CCCC(C(=O)NC5CC5)C4)ccc31)CC(C1CCOCC1)CC2` (stereo not drawn) [N-cyclopropyl-1-[9-methyl-6-(oxan-4-yl)5,6,7,8-tetrahydrocarbazole-3-carbonyl]piperidine-3-carboxamide] as the compound, how does the Ki [1] read?
**A.** 32.4 nM

**Q.** What about the EC50 [2] of the same compound?
**A.** 128 nM

**Q.** What about the Emax [2] of the same compound?
**A.** 115%

**Q.** Which Ki [1] does the source give for `Cn1c2c(c3cc(C(=O)N4CC[C@H](C(=O)NCC(F)F)C4)ccc31)CC(C1CCOCC1)CC2` (stereo partly drawn) [(3S)—N-(2,2-difluoroethyl)-1-[9-methyl-6-(oxan-4-yl)5,6,7,8-tetrahydrocarbazole-3-carbonyl]pyrrolidine-3-carboxamide] here?
**A.** 49.5 nM

**Q.** What about the EC50 [2] of the same compound?
**A.** 82.6 nM

**Q.** And the Emax [2]?
**A.** 125%

**Q.** For `CCN(CC(=O)NC)C(=O)c1ccc2c(c1)c1c(n2C)CCC(C2CCOCC2)C1` (stereo not drawn) [N-ethyl-9-methyl-N-(methylcarbamoylmethyl)-6-(oxan-4-yl)-5,6,7,8-tetrahydrocarbazole-3-carboxamide], which Ki [1] is on record?
**A.** 140 nM

**Q.** And the EC50 [2]?
**A.** 342 nM

**Q.** And the Emax [2]?
**A.** 116%

**Q.** How did the Ki [1] turn out when `Cn1c2c(c3cc(C(=O)N4CCCC(NC(=O)C5CC5)C4)ccc31)CC(C1CCOCC1)CC2` (stereo not drawn) [N-[1-[9-methyl-6-(oxan-4-yl)5,6,7,8-tetrahydrocarbazole-3-carbonyl]-3-piperidyl]cyclopropanecarboxamide] was run?
**A.** 26.7 nM

**Q.** What about the EC50 [2] of the same compound?
**A.** 40.6 nM

**Q.** And the Emax [2]?
**A.** 115%

**Q.** For `C[C@H](C(=O)NCCF)N(C)C(=O)c1ccc2c(c1)c1c(n2C)CCC(C2CCOCC2)C1` (stereo partly drawn) [N-[(1R)-1-(2-fluoroethylcarbamoyl)ethyl]-N,9-dimethyl-6-(oxan-4-yl)-5,6,7,8-tetrahydrocarbazole-3-carboxamide], which Ki [1] is on record?
**A.** 157 nM

**Q.** What about the EC50 [2] of the same compound?
**A.** 353 nM

**Q.** And the Emax [2]?
**A.** 107%

**Q.** Which results are given for `CCN(CCCC(=O)NCCF)C(=O)c1ccc2c(c1)c1c(n2C)CCC(C2CCOCC2)C1` (stereo not drawn) [N-ethyl-N-[3-(2-fluoroethylcarbamoyl)propyl]-9-methyl-6-(oxan-4-yl)-5,6,7,8-tetrahydrocarbazole-3-carboxamide]?
**A.** Ki [1]: 10.1 nM; EC50 [2]: 9.2 nM; Emax [2]: 135%

**Q.** What does the source list for `CN(CCN(C)C(=O)c1ccc2c(c1)c1c(n2C)CCC(C2CCOCC2)C1)C(=O)NC1CC1` (stereo not drawn) [N-[2-(cyclopropylcarbamoyl-methyl-amino)ethyl]-N,9-dimethyl-6-(oxan-4-yl)-5,6,7,8-tetrahydrocarbazole-3-carboxamide]?
**A.** Ki [1]: 77.5 nM; EC50 [2]: 468 nM; Emax [2]: 110%

**Q.** For `Cn1c2c(c3cc(C(=O)N4CCC[C@H](NC(=O)C5CC5)C4)ccc31)CC(C1CCOCC1)CC2` (stereo partly drawn) [N-[(3S)-1-[9-methyl-6-(oxan-4-yl)5,6,7,8-tetrahydrocarbazole-3-carbonyl]-3-piperidyl]cyclopropanecarboxamide], which Ki [1] is on record?
**A.** 43.4 nM

**Q.** What about the EC50 [2] of the same compound?
**A.** 87.2 nM

**Q.** And the Emax [2]?
**A.** 119%

**Q.** With `CCNC(=O)C1CCN(C(=O)c2ccc3c(c2)c2c(n3C)CCC(C3CCOCC3)C2)C1` (stereo not drawn) [N-ethyl-1-[9-methyl-6-(oxan-4-yl)5,6,7,8-tetrahydrocarbazole-3-carbonyl]pyrrolidine-3-carboxamide] as the compound, how does the Ki [1] read?
**A.** 163 nM

**Q.** What about the EC50 [2] of the same compound?
**A.** 324 nM

**Q.** What about the Emax [2] of the same compound?
**A.** 119%

**Q.** With `CCN(CC(=O)NCCF)C(=O)c1ccc2c(c1)c1c(n2S(=O)(=O)CC)CCC(C2CCOCC2)C1` (stereo not drawn) [N-ethyl-9-ethylsulfonyl-N-(2-fluoroethylcarbamoylmethyl)-6-(oxan-4-yl)-5,6,7,8-tetrahydrocarbazole-3-carboxamide] as the compound, how does the Ki [1] read?
**A.** 12.9 nM

**Q.** What about the EC50 [2] of the same compound?
**A.** 12.9 nM

**Q.** And the Emax [2]?
**A.** 107%

**Q.** Which results are given for `CCN(CC(=O)NC(C)C)C(=O)c1ccc2c(c1)c1c(n2C)CCC(C2CCOCC2)C1` (stereo not drawn) [N-ethyl-9-methyl-6-(oxan-4-yl)-N-(propan-2-ylcarbamoylmethyl)-5,6,7,8-tetrahydrocarbazole-3-carboxamide]?
**A.** Ki [1]: 31.3 nM; EC50 [2]: 41.7 nM; Emax [2]: 123%

**Q.** Which results are given for `CCn1c2c(c3cc(C(=O)N(C)CCCC(=O)NCCO)ccc31)CC(C1CCOCC1)CC2` (stereo not drawn) [9-ethyl-N-[3-(2-hydroxyethylcarbamoyl)propyl]-N-methyl-6-(oxan-4-yl)-5,6,7,8-tetrahydrocarbazole-3-carboxamide]?
**A.** Ki [1]: 236 nM; EC50 [2]: 597 nM; Emax [2]: 119%

**Q.** What does the source list for `CCS(=O)(=O)n1c2c(c3cc(C(=O)N4CCC(O)CC4)ccc31)CC(C1CCOCC1)CC2` (stereo not drawn) [[9-ethylsulfonyl-6-(oxan-4-yl)-5,6,7,8-tetrahydrocarbazol-3-yl]-(4-hydroxy-1-piperidyl)methanone]?
**A.** Ki [1]: 155 nM; EC50 [2]: 352 nM; Emax [2]: 107%

**Q.** Which results are given for `CCNC(=O)CC[C@@H](CO)N(C)C(=O)c1ccc2c(c1)c1c(n2C)CC[C@@H](C2CCOCC2)C1` [(R)—N-((S)-5-(Ethylamino)-1-hydroxy-5-oxopentan-2-yl)-N,9-dimethyl-3-(tetrahydro-2H-pyran-4-yl)-2,3,4,9-tetrahydro-1H-carbazole-6-carboxamide]?
**A.** Ki [1]: 36 nM; EC50 [2]: 79 nM; Emax [2]: 126%

**Q.** How did the Ki [1] turn out when `CCN(CC(=O)NCCCO)C(=O)c1ccc2c(c1)c1c(n2S(=O)(=O)CC)CCC(C2CCOCC2)C1` (stereo not drawn) [N-ethyl-9-ethylsulfonyl-N-(3-hydroxypropylcarbamoylmethyl)-6-(oxan-4-yl)-5,6,7,8-tetrahydrocarbazole-3-carboxamide] was run?
**A.** 45.8 nM

**Q.** And the EC50 [2]?
**A.** 53.3 nM

**Q.** And the Emax [2]?
**A.** 126%

**Q.** Which Ki [1] does the source give for `Cn1c2c(c3cc(C(=O)N4CCC(NC(=O)C5CC5)CC4)ccc31)CC(C1CCOCC1)CC2` (stereo not drawn) [N-[1-[9-methyl-6-(oxan-4-yl)5,6,7,8-tetrahydrocarbazole-3-carbonyl]-4-piperidyl]cyclopropanecarboxamide] here?
**A.** > 3480 nM

**Q.** And the EC50 [2]?
**A.** > 30000 nM

**Q.** What about the Emax [2] of the same compound?
**A.** > 30%

**Q.** With `CCNC(=O)CCCN(C)C(=O)c1ccc2c(c1)c1c(n2C)CCC(C2CCOCC2)C1` (stereo not drawn) [N-[3-(ethylcarbamoyl)propyl]-N,9-dimethyl-6-(oxan-4-yl)-5,6,7,8-tetrahydrocarbazole-3-carboxamide] as the compound, how does the Ki [1] read?
**A.** 36.6 nM

**Q.** And the EC50 [2]?
**A.** 63.5 nM

**Q.** And the Emax [2]?
**A.** 111%

**Q.** For `CN(CCN(C)C(=S)NC1CC1)C(=O)c1ccc2c(c1)c1c(n2C)CCC(C2CCOCC2)C1` (stereo not drawn) [N-[2-(cyclopropylthiocarbamoyl-methyl-amino)ethyl]-N,9-dimethyl-6-(oxan-4-yl)-5,6,7,8-tetrahydrocarbazole-3-carboxamide], which Ki [1] is on record?
**A.** 9.9 nM

**Q.** What about the EC50 [2] of the same compound?
**A.** 161 nM

**Q.** And the Emax [2]?
**A.** 106%
